Legend:
Topoisomerase II = target: T1, Topoisomerase II (Homo sapiens, UniProt P11388); experiment: Topoisomerase II inhibition screening (supercoiled plasmid relaxation, then kDNA decatenation); assay type: biochemical; set-up: key to TOP2 Inhib.: Y is an indication that activity was found; conditions: for relative activity among compounds tested in the screening round: medium throughput relaxation and kDNA decatenation assays
T1 construct: purchased TopoGENE (TopoGEN) TG2000H / kit TG1001
Experimental: In vitro Topo II activity assays—K-DNA decatenation assays were performed using the human Topo II assay kit (TG1001, TopoGENE™) with Etoposide and ICRF193 as poison and catalytic inhibitors respectively. DNA relaxation assays were performed by incubating the supercoiled pHOT™ plasmid with human Topo IIα (TG2000H™, TopoGENE™) at 37 degrees for one hour. Reactions were stopped by adding 10% SDS, EDTA and proteinase K. Plasmid DNAs were separated on DNA agarose gel and stained with ethidium bromide for visualization.
Medium Throughput Screening Assays A supercoiled plasmid relaxation assay was used as a first, course filter to determine candidate small molecules. Small molecule candidates that were sufficiently active in the first round screening were then subject to the kDNA decatenation assay.
Second Round Screening With the discovered active compounds 19 and 23, a new screen was initiated to look for similar molecules. For this, the shape similarity screening program ROCS™^10 was used The compounds chosen for the ROCS™ search was based on the docking conformation of Compound 23. The ZINC-15 library filtered down to 6 million molecules described previously was used for this screening. The top 62 molecules were hand-picked based on their ROCS™ similarity as well as their docking scores. These molecules were ordered and tested with the same medium throughput assays previously described. A large enrichment in the proportion of active molecules was observed, of close to 10-fold relative to the first round, validating the virtual screening pipeline.

Cancer Cell = experiment: Cancer cell growth inhibition; assay type: cell-based; set-up: key: Y is an indication that activity was found
Experimental: BrDU incorporation and cell proliferation assays—Cell proliferation rates were measured by using the CellTitre™ 96 AqueousOne™ kit (Promega™) and bromodeoxyuridine (BrdU) assay kit (Millipore™) according to the manufacturer's protocol, with minor modifications as we have previously described by Li H. et al.^19

K562 cells = experiment: γH2AX Western blot (DNA damage in cells); assay type: cell-based; conditions: 10-20 μM, 4 hours
Experimental: Cytotoxicity was evaluated by measuring LDH levels from cell culture media; (b) K562 cells were treated with either vehicle or 10-20 μM of Top60, Etoposide and ICRF187 for 4 hours. Whole cell lyses were collected to measure γH2AX levels with vinculin as the loading control; (c) K562 cells were treated with 0, 1, 5, 10, 15 and 20 μM of Top60, 20 μM Etoposide or 20 uM ICRF187 for 48 hours. Cell proliferation rates were determined by MTS assays; and (d) K562 cells were treated with 20 μM of Top60, Etoposide or ICRF187 for 0, 24, 48 and 72 hours. Cell proliferation rates were measured by MTS assays. All results were collected from three independent experiments.
Top60 is a catalytic inhibitor of Topo II To verify that our lead Compound 60(Top60), the formation of ds DNA breaks was assayed both in and outside of cells. To assess whether Top60 causes double stranded DNA breaks outside cells, supercoiled plasmid was incubated with and without Top60 in the presence of Topo II (FIG. 1d). […] Furthermore, H2AXγ protein expression was assessed by Western blot to determine if the lead compound could cause DNA damage in cells, and compared to Etoposide as a control (FIG. 3b). […] To determine if Top60 was capable of intercalating DNA, it was incubated with relaxed plasmid at increasing concentrations and compared with m-AMSA, a known intercalator. […]

T1 sequence (P11388 whole entry): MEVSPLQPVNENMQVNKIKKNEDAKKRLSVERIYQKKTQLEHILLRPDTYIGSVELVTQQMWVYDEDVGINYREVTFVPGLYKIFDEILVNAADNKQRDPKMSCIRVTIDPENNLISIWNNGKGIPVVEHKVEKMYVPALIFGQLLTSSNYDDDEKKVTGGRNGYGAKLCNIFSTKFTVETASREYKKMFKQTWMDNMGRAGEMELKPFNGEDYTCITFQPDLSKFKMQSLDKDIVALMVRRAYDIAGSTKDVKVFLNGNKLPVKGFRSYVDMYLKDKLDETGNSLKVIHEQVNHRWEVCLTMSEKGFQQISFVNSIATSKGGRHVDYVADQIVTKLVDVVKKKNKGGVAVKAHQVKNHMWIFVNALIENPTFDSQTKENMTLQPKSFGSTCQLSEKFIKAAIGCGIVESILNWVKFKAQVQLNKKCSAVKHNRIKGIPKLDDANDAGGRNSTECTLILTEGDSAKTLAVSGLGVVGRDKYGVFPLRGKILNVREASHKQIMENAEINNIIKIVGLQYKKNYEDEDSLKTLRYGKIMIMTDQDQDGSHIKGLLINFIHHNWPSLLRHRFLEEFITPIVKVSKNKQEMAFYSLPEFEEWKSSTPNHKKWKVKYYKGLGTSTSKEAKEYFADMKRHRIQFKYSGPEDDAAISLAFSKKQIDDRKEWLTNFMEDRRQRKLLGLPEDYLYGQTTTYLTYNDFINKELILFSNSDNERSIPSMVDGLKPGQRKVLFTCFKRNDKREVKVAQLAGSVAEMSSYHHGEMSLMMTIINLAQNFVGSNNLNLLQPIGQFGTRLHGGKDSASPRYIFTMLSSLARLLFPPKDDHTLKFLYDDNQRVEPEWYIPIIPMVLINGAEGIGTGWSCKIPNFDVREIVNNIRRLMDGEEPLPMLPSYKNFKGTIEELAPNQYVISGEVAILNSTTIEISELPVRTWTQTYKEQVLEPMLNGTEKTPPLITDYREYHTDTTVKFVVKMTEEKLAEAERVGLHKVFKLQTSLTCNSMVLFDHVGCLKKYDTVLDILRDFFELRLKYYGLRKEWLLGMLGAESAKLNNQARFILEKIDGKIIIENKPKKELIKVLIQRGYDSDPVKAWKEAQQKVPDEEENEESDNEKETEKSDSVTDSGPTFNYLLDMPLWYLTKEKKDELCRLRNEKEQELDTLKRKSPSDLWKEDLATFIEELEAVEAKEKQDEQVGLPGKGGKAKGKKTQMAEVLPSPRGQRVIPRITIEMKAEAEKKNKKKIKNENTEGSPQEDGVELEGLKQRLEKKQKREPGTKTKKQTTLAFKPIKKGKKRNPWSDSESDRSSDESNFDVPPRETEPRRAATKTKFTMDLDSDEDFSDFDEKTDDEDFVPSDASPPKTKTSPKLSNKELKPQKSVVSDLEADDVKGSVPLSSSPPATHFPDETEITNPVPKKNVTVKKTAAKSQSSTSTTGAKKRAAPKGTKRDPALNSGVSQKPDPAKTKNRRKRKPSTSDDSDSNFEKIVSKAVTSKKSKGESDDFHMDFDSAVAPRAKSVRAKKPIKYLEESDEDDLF

Row | SMILES | TOP2 Inhib. (Topoisomerase II) | relative activity among compounds tested in the screening round (Topoisomerase II) | Cancer Cell Growth Inhib. (Cancer Cell) | DNA damage in cells by H2AXγ protein level (K562 cells)
1 | NC1=C(c2nc3ccccc3s2)C(=O)CN1/N=C\c1ccc(O)c(O)c1 [Compound 19] | Y | most active | Y | –
2 | CC(C)CC(=O)Nc1ccc(NC(=O)c2ccc[nH]c2=S)cc1 [Compound 23] | Y | most active | Y | –
3 | O=C(Nc1ccc(CN2CCCC2)cc1)c1ccc[nH]c1=S [Compound 62] | Y | – | Y | –
4 | COc1cccc(Oc2ccc(NC(=O)c3ccc[nH]c3=S)cc2)c1 [Compound 63] | Y | – | Y | –
5 | CCC(=O)Nc1ccc(NC(=O)c2ccc[nH]c2=S)cc1 [Compound 64] | Y | – | Y | –
6 | N#Cc1ccc(Oc2ccc(NC(=O)c3ccc[nH]c3=S)cc2)cc1 [Compound 65] | Y | – | Y | –
7 | CC(NC(=O)OC(C)(C)C)c1ccc(NC(=O)c2ccc[nH]c2=S)cc1 (centres unmarked) [Compound 67] | Y | – | Y | –
8 | COc1ccc(Sc2ccc(NC(=O)c3ccc[nH]c3=S)cc2)cc1 [Compound 68] | Y | – | Y | –
9 | O=C(Nc1ccc(NC2CCCC2)cc1)c1ccc[nH]c1=S [Compound 70] | Y | – | Y | –
10 | CSc1ccccc1C(=O)Nc1ccc(NC(=O)CC(C)C)cc1 [Compound 72] | Y | – | Y | –
11 | O=C(Nc1ccc(NC(=O)N2CCCCCC2)cc1)c1ccc[nH]c1=S [Compound 75] | Y | – | Y | –
12 | CC(Nc1ccc(NC(=O)c2ccc[nH]c2=S)cc1Cl)c1ccccc1 (centres unmarked) [Compound 77] | Y | – | Y | –
13 | O=C(Nc1ccc(N2CCN(C(=O)c3ccoc3)CC2)cc1)c1ccc(Cl)c(Cl)c1 [Compound 88] | Y | – | Y | –
14 | O=C(Nc1ccc(-n2cc(Br)cn2)nc1)c1ccc2ncsc2c1 [Compound 89] | Y | – | Y | –
15 | Cc1ccc(C(=O)Nc2ccc(OC3CCCCC3O)cc2)c(=S)[nH]1 (centres unmarked) [Compound 90] | Y | – | Y | –
16 | O=C(Nc1ccc(N2CCc3sccc3C2)nc1)c1cccnc1S [Compound 110] | Y | – | Y | –
17 | COc1ccc(Nc2ccc(NC(=O)c3cccnc3S)cc2)cc1 [Compound 112] | Y | – | Y | –
18 | CCC(=O)Nc1ccc(Nc2ccc(NC(=O)c3cccnc3S)cc2)cc1 [Compound 113] | Y | – | Y | –
19 | CC(Nc1ccc(NC(=O)c2ccc[nH]c2=S)cc1)c1ccccc1 (centres unmarked) [Compound 115] | Y | – | Y | –
20 | CC(C(C)N1CC(=O)NC(=O)C1)N1CC(=O)NC(=O)C1 (centres unmarked) [ICRF, 4-[2-(3,5-Dioxo-1-piperazinyl)-1-methylpropyl]piperazine-2,6-dione, reference compound] | – | – | – | do not cause DNA damage

Source: patent US20210379077A1, “TOPOISOMERASE II CATALYTIC INHIBITOR COMPOUND THERAPEUTICS FOR CANCER TREATMENT, METHODS AND USES” (The University of British Columbia, priority 2018, published 2021)
